# Experimental data as given in PMC11521937, “Expression and characterization of pantothenate energy‐coupling factor transporters as an anti‐infective drug target” (Protein Science : A Publication of the Protein Society, 2024).
# Like-named read-outs stand apart in the source and are kept apart here.
# Assays:
# [1] = system: Lactobacillus casei; assay: L. casei whole‐cell uptake assay; type: cell-based; conditions: Lacticaseibacillus casei
# [2] = In vitro MTT cytotoxicity assay, A549; type: cell-based, human; conditions: human, read-out: Percent (%) cell viability at 100 μM, A549 cells
# Method: (§1) In vitro cytotoxicity evaluation […]
# (§2) with minor modifications, which will be detailed below.
# (§3) To obtain information regarding the toxicity of our compounds, their impact on the viability of human cells was investigated. HepG2 and A549 cells (2 × 10^4 cells per well) were seeded in 96-well, flat-bottomed culture plates in 100 µL culture medium (DMEM containing 10% fetal calve serum, 1% penicillin-streptomycin). Twenty-four hours after seeding the cells, medium was removed and replaced by medium containing test compounds in a final DMSO concentration of 1%. Compounds were tested in duplicates at a single concentration in 1% DMSO/medium. Epirubicin and doxorubicin were used as positive controls in serial dilutions starting from 10 µM, and rifampicin was used as a negative control (at 100 µM). The living cell mass was determined 48 h after treatment with compounds by adding 0.1 volumes of 3-(4,5-dimethylthiazol-2-yl)-2,5-diphenyltetrazolium bromide (MTT) solution (5 mg/mL sterile PBS) (Sigma, St. Louis, MO) to the wells. After incubating the cells for 30 min at 37 °C (atmosphere containing 5% CO2), medium was removed and MTT crystals were dissolved in 75 µL of a solution containing 10% SDS and 0.5% acetic acid in DMSO. The optical density (OD) of the samples was determined photometrically at 570 nm in a PHERAstar Omega plate reader (BMG labtech, Ortenberg, Germany). To obtain percent viability for each sample, their ODs were related to those of DMSO controls. At least two independent measurements were performed for each compound. The calculation of IC50 was performed using the nonlinear regression function of GraphPad Prism 10 (GraphPad Software, San Diego, CA, USA). […]
# [3] = system: HepG2 cells; assay: In vitro MTT cytotoxicity assay, HepG2; type: cell-based, human; conditions: 48 h
# Method: as §1, §2, §3
# [4] = system: A549 cells; assay: In vitro MTT cytotoxicity assay, A549; type: cell-based, human; conditions: 48 h, 100 µM
# Method: as §1, §2, §3
SMILES,IC50 [1] [µM],"viability at 48 h, 100 µM ([2]; A549 cells) [%]","Percent (%) cell viability at 100 μM, HepG2 cells [3]","viability at 48 h, 100 µM [2] [%]","Percent (%) cell viability at 100 μM, A549 cells [4] [%]"
O=C(O)c1cccc(NCc2ccc(-c3cccc(Cl)c3)o2)c1 [Compound 5],247 ± 78,102 ± 17,non‐toxic,–,–
CC(C)(C)OC(=O)Nc1ccc(OCc2cccc3ccccc23)cc1C(=O)O [Compound 3],–,–,–,86 ± 11,–
O=C(O)c1cccc(NCc2ccc(-c3ccccc3Cl)o2)c1 [Compound 6],285 ± 293,103 ± 7,non‐toxic,–,–
O=C(O)c1cc(OCc2ccc(Br)c3ccccc23)ccc1O [Compound 2],–,–,–,–,124 ± 15
O=C(O)c1cc(OCc2cccc3ccccc23)ccc1O [Compound 1],–,–,–,> 100,111 ± 6
O=C(O)c1cccc(NCc2ccc(-c3ccc(Cl)cc3)o2)c1 [Compound 4],321 ± 200,80 ± 10,–,–,–
